Data: PMC8769378, “Underlining the Importance of Peripheral Protic Functional Groups to Enhance the Proton Exchange of Gd-Based MRI Contrast Agents” (Inorganic Chemistry, 2021)

Experiments:
[1] = Stability and protonation constants of Ca^II complexes by pH potentiometry; format: physicochemical
Text: (§1) The metal complexes of biomedical interest must show a high in vivo stability, which includes high thermodynamic stability and kinetic inertness to allow targeting applications and to avoid possible toxic effects derived by metal ion and ligand release via transmetalation or transchelation reactions.[2],[3],[13] The protonation constants of L2 as well as the stability and the protonation constants of GdL2 and those of the most important endogenous divalent metal complexes (Ca^II-, Zn^II-, and Cu^II) were determined by pH potentiometry (Table 1 and Table S1). In the case of GdL1, we were interested in determining the dissociation constant of the hydroxyl group that was measured also by pH potentiometry (Table 1). […]
(§2) The stability and protonation constants of Ca^2+, Zn^2+, and Cu^2+ complexes formed with the […] ligand were determined by pH potentiometric titration. […] The protonation constants of the GdL1 and GdL2 complexes were determined using pH potentiometry by titrating the preprepared complexes from pH = 3.0 to pH = 12 for GdL2 and from pH = 4.0 to pH = 12 for GdL1 with 0.2 M NaOH. The stability constants of GdL2 were determined by the “out-of-cell” technique because of the slow formation reaction. The pH range of the complexation equilibria and the time needed to reach the equilibria were determined by relaxometry for the formation of GdL2. […]

[2] = Protonation constants of the Gd^III complexes by pH potentiometry; format: physicochemical; conditions: 0.15 M NaCl, 298 K
Text: as §1, §2

O=C(O)CN1CCN(CC(=O)O)CCN(C[C@@H](O)C(=O)O)CCN(CC(=O)O)CC1 [L2, (R)2,2′,2″-(10-(2-Carboxy-2-hydroxyethyl)-1,4,7,10-tetraazacyclododecane-1,4,7-triyl) Triacetic Acid]
CaHL (log K, protonation constant of the complex) ([1]; 0.15 M NaCl, 25 °C): 5.20 (5) | CaL (log K, stability constant) ([1]; I = 0.15 M NaCl, 298 K): 11.63 (1) | Gd(L)H–1 (log KGd(L)H-1, protonation constant of the alkoxide) [2]: 9.58 (3) | Gd(HL) (log K, protonation constant of the Gd complex) ([2]; carboxylate of the 2-hydroxypropanoic arm): 3.36 (3)
